Laboratory results taken from patent publication US20140336216A1, “PHYSIOLOGICAL LIGANDS FOR GPR139” (Janssen Pharmaceutica NV, priority 2013, published 2014).
Values joined by “and” are separate entries in the source; they are usually repeats but may differ in a detail not shown here. Equal values may be shown once.

molecular target: T1, GPR139 (Homo sapiens, UniProt Q6DWJ6); test: Calcium mobilization assay (FLIPR), GPR139 expressed in HEK293 cells; type: cell-based; set-up: expressed in transfected cells; host or cells: HEK293 (transient); details: 300 μM; calcium mobilization as percentage of that observed for L-phenylalanine
T1 sequence (Q6DWJ6 1-353): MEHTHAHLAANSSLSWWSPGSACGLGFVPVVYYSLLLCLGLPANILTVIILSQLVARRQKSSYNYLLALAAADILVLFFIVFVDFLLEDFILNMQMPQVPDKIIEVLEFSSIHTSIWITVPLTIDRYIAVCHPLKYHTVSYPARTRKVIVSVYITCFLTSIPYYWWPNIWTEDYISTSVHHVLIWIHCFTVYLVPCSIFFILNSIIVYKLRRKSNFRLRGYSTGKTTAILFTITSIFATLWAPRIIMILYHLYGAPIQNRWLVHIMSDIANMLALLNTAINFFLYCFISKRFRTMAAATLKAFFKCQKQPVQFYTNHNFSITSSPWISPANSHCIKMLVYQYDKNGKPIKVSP
Experimental: FIG. 3A and FIG. 3B: Provides the results of experiments conducted to determine whether Trp and its derivatives (FIG. 3A) and Phe and its derivatives (FIG. 3B) stimulate Ca^2+ mobilization in HEK293 cells expressing GPR139.
The active compounds were also tested in a calcium mobilization assay (FLIPR® assay). For these experiments human GPR139 was transiently expressed in HEK293 cells and calcium mobilization was stimulated using L-Trp, L-Phe or their derivatives. […] The concentrations of L-Trp and L-Phe in many cell culture media (for instance DMEM is about 80 μM and 750 μM respectively) are close to the EC50 values of L-Trp and L-Phe for GPR139. […] This may explain why GPR139 appeared constitutively active when recombinantly expressed in mammalian cells.
About 300 additional phenylalanine analogues have been tested for GPR139 activation using a calcium mobilization (FLIPR®) assay. The results of these experiments indicate that many of these analogues can also activate GPR139. Table 4 lists certain phenylalanine analogues that have been determined to activate GPR139 by calcium mobilization at a concentration of 300 μM (calcium mobilization is expressed as percentage of that observed for L-phenylalanine).

Row | Molecule | % L-phenylalanine at 300 μM (average), calcium mobilization [% L-phenylalanine]
1 | N[C@@H](Cc1ccc(Br)s1)C(=O)O [2-(5-bromothienyl)-L-alanine] | 151
2 | S-(5-bromothienyl)-D-alanine | 154
3 | N[C@H](CCc1ccccc1)C(=O)O [d-Homo-phenylalanine] | 105
4 | CC(C)(C)OC(=O)N1Cc2ccccc2C[C@@H]1C(=O)O [(3R)-2-tert-butoxycarbony 1-3,4-dihydro-1H-isoquinoline-3-carboxylic acid] | 155
5 | O=C(O)[C@@H]1Cc2c([nH]c3ccccc23)CN1 [L-1,2,3,4-tetrahydronorharman-3-carboxylic acid] | 151
6 | S-Nitro-L-phenylalanine | 150

same assay, conditions: HEK293, read-out: % L-phenylalanine at 300 μM (average), calcium mobilization

Row | Molecule | Emax at 300 µM [%]
7 | N[C@@H](Cc1ccc([N+](=O)[O-])cc1[N+](=O)[O-])C(=O)O [2,4-Dinitro-L-phenylalanine] | 95
8 | N[C@@H](Cc1ccc(Br)cc1)C(=O)O [4-Bromo-L-phenylalanine] | 153
9 | N[C@H](Cc1ccc(Br)cc1)C(=O)O [4-Bromo-D-phenylalanine] | 139

same assay, conditions: HEK293; 300 μM; calcium mobilization as percentage of that observed for L-phenylalanine; read-out: % L-phenylalanine at 300 μM (average), calcium mobilization

Row | Molecule | Emax at 300 µM [%]
10 | N[C@H](Cc1ccccc1Br)C(=O)O [2-Bromo-D-phenylalanine] | 135
11 | N[C@@H](Cc1cccc(Br)c1)C(=O)O [3-Bromo-L-phenylalanine] | 167
12 | N[C@H](C(=O)O)C(c1ccccc1)c1ccccc1 [3,3-Diphenyl-L-alanine] | 117
13 | N[C@@H](Cc1ccc(Cl)c(Cl)c1)C(=O)O [3,4-Dichloro-L-phenylalanine] | 149
14 | N[C@H](Cc1ccc(F)c(F)c1)C(=O)O [3,4-Difluoro-D-phenylalanine] | 121
15 | N[C@H](Cc1cccc(Cl)c1)C(=O)O [3-Chloro-D-phenylalanine] | 147
16 | N[C@H](Cc1ccc(I)cc1)C(=O)O [4-Iodo-D-phenylalanine] | 125
17 | Cc1ccccc1C[C@H](N)C(=O)O [2-Methyl-L-phenylalanine] | 134
18 | N[C@H](Cc1c(F)c(F)c(F)c(F)c1F)C(=O)O [2,3,4,5,6-P entafluoro-D-phenylalanine] | 145
19 | N#Cc1cccc(C[C@@H](N)C(=O)O)c1 [3-Cyano-D-phenylalanine] | 93
20 | N[C@H](Cc1cccc(Br)c1)C(=O)O [3-Bromo-D-phenylalanine] | 172
21 | N[C@@H](Cc1ccccc1F)C(=O)O [2-Fluoro-L-phenylalanine] | 119
22 | Cc1ccc(C[C@H](N)C(=O)O)c(C)c1 [2,4-Dimethyl-L-phenylalanine] | 113
23 | Cc1ccccc1C[C@@H](N)C(=O)O [2-Methyl-D-phenylalanine] | 109
24 | N[C@H](Cc1ccc(Cl)cc1Cl)C(=O)O [2,4-Dichloro-D-phenylalanine] | 135
25 | N[C@H](Cc1cccc(F)c1)C(=O)O [3-Fluoro-D-phenylalanine] | 94
26 | Cc1ccc(C[C@@H](N)C(=O)O)c(C)c1 [2,4-Dimethyl-D-phenylalanine] | 101
27 | N[C@@H](Cc1ccc(I)cc1)C(=O)O [4-Iodo-L-phenylalanine] | 116
28 | N[C@@H](Cc1cccc(F)c1)C(=O)O [3-Fluoro-L-phenylalanine] | 114
29 | N#Cc1cccc(C[C@H](N)C(=O)O)c1 [3-Cyano-L-phenylalanine] | 115
30 | N[C@H](Cc1cc(F)cc(F)c1)C(=O)O [3,5-Difluoro-D-phenylalanine] | 102
31 | N[C@@H](Cc1ccc(Cl)cc1Cl)C(=O)O [2,4-Dichloro-L-phenylalanine] | 122
32 | Cc1cccc(C[C@H](N)C(=O)O)c1 [3-Methyl-L-phenylalanine] | 147
33 | N[C@@H](Cc1ccccc1C(F)(F)F)C(=O)O [2-Trifluoromethyl-L-phenylalanine] | 110
34 | N[C@@H](Cc1ccccc1Br)C(=O)O [2-Bromo-L-phenylalanine] | 168
35 | N[C@H](Cc1ccc(Cl)c(Cl)c1)C(=O)O [3,4-Dichloro-D-phenylalanine] | 149
36 | Cc1cccc(C[C@@H](N)C(=O)O)c1 [3-Methyl-D-phenylalanine] | 150
37 | N[C@@H](Cc1cccc(Cl)c1)C(=O)O [3-Chloro-L-phenylalanine] | 145

The next lines start with the values.

Row | Emax at 300 µM [%] | Molecule
38 | 110 | N[C@H](Cc1ccc(Cl)cc1)C(=O)O [4-Chloro-D-phenylalanine]
39 | 91 | N[C@H](Cc1ccc(F)cc1)C(=O)O [4-Fluoro-D-phenylalanine]
40 | 131 | N[C@@H](Cc1cccc([N+](=O)[O-])c1)C(=O)O [3-Nitro-L-phenylalanine]
41 | 129 | N[C@H](CCCc1ccccc1)C(=O)O [D-2-Amino-5-phenyl-pentanoic acid]
42 | 115 | CC(C)(C)c1ccc(C[C@H](N)C(=O)O)cc1 [4-tert-Butyl-L-phenylalanine]
43 | 164 | N[C@H](Cc1cccc([N+](=O)[O-])c1)C(=O)O [3-Nitro-D-Phenylalanin]
44 | 132 | N[C@@H](Cc1ccc(F)cc1)C(=O)O [4-Fluoro-L-phenylalanine]
45 | 111 | N[C@H](Cc1ccc([N+](=O)[O-])cc1)C(=O)O [4-Nitro-D-phenylalanine]
46 | 102 | Cc1ccc(C[C@@H](N)C(=O)O)cc1 [4-Methyl-D-phenylalanine]
47 | 150 | N[C@@H](Cc1ccc(C(F)(F)F)cc1)C(=O)O [4-Trifluoromethyl-L-phenylalanine]
48 | 146 | N[C@@H](Cc1ccc(Cl)cc1)C(=O)O [4-Chloro-L-phenylalanine]
49 | 125 | C[C@](N)(Cc1ccc(F)cc1)C(=O)O [α-methyl-4-Fluoro-L-phenylalanine]
50 | 133 | N[C@@H](Cc1cccc(C(F)(F)F)c1)C(=O)O [3-Trifluoromethyl-L-phenylalanine]
51 | 128 | COc1ccc(C[C@H](N)C(=O)O)cc1 [4-Methoxy-L-phenylalanine]
52 | 149 | Cc1ccc(C[C@H](N)C(=O)O)cc1 [4-Methyl-L-phenylalanine]

molecular target: T1, GPR139; test: GTPγS binding assay, single-concentration screen, COS7 membranes co-expressing GPR139 and GO2Q; type: biochemical; set-up: expressed in transfected cells; host or cells: COS7 (membranes); details: 1 mM final concentration; COS7 membranes co-expressing GPR139 and GO2Q; single wells of triplicate
Experimental: (§1) In order identify the ligands for GPR139 two improvements in the detection assay were made to allow for the ligands to be detected. First, we chose to use a GTPγS binding assay instead of using live cultured cells. The GTPγS binding assay is a cell free system that uses the cell membrane of the cell(s) of interest rather than the live cell(s). One advantage of this assay is that potential ligands present in the cell culture media are washed away when the cell membrane is prepared. This reduces the basal level of signal and increase the chance of detecting receptor ligands when assessing compounds that activate the receptor. Second, a GO2Q chimeric G-protein was created to be co-expressed with GPR139 in order to increase the signal-to-noise ratio in the GTPγS binding assay. Historically, the Gi, Go coupled GPCRs offer much greater signal-to-noise ratio in GTPγS binding studies. For Gs and Gq coupled GPCRs, although ligand-stimulated specific signals can be detected in a GTPγS binding assay, the signal-to-noise ratios are often very small. To address this a chimeric GO2-Gq chimeric G-protein, GO2Q, with the N-terminus from Go2 protein and the C-terminus from Gq protein.
(§2) To test for compounds that activate GPR139, different amino acids and their derivatives (Table 2) were tested as ligands in the GTPγS binding assay using cell membranes from COS7 cells co-expressing GPR139 and GO2Q. Cell membrane from COS7 cells expressing GO2Q alone or co-expressing other GPCRs were also tested in GTPγS binding assay in parallel as controls. Each compound was tested in triplicate.

Row | Activation levels of GPR139 (GTPγS binding), GPR139-GO2Q | Molecule
53 | 2554 and 2675 and 2831 | NCC(O)c1ccc(O)cc1 (stereo not shown) [Octopamine]
54 | 2806 and 2483 and 2547 | NC(=O)C[C@H](N)C(=O)O [Asn]
55 | 2688 and 2825 and 2708 | NCCc1ccc(O)c(O)c1 [DA]
56 | 2847 and 2837 and 2841 | N[C@@H](CCC(=O)O)C(=O)O [Glu]
57 | 2560 and 2505 and 2414 | NCC(=O)O [Gly]
58 | 2719 and 2657 and 2786 | O=C(O)[C@@H]1CCCN1 [Pro]

test system: GO2Q alone; test: GTPγS binding assay, control COS7 membranes expressing GO2Q alone (Ct-GO2Q); type: biochemical; details: 1 mM final concentration; COS7 membranes expressing GO2Q alone; single wells of triplicate
Experimental: as §1, §2

Row | Activation levels (GTPγS binding), Ct-GO2Q | Molecule
59 | 2087 and 2140 and 2142 | NCC(O)c1ccc(O)cc1 (stereo not shown) [Octopamine]
60 | 2195 and 2142 and 2133 | NC(=O)C[C@H](N)C(=O)O [Asn]
61 | 2250 and 2213 and 2319 | NCCc1ccc(O)c(O)c1 [DA]
62 | 2242 and 2310 and 2311 | N[C@@H](CCC(=O)O)C(=O)O [Glu]
63 | 1936 and 2133 and 2289 | NCC(=O)O [Gly]
64 | 2256 and 2235 and 2329 | O=C(O)[C@@H]1CCCN1 [Pro]
